Data on twelve molecules can be found in PubChem BioAssay (NCI).

Among the test systems are SF-268 CNS; HCC-2998 colon; RPMI-8226 leukemia; SK-MEL-2 melanoma; UACC-257 melanoma; OVCAR-3 ovarian; HCT-116 colon; CAKI-1 renal; RXF 393 renal; SK-MEL-5 melanoma.
Test in all cases: inhibition of tumour cell growth, NCI panel, 48 h

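Compound exposure: 48 hours, 5 concentrations, 96-well plates. GI50 marks 50% less growth. TGI: concentration producing complete growth inhibition.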

Regarding `O=C(C/C(CCC(=O)N(Cc1ccccc1)Cc1ccccc1)=N/Nc1ccc([N+](=O)[O-])cc1[N+](=O)[O-])c1ccccc1`, the TGI with SF-268 CNS, in the test on HCC-2998 colon, in the test on RPMI-8226 leukemia, in the test with SK-MEL-2 melanoma, in the test with UACC-257 melanoma and with OVCAR-3 ovarian was more than 100 µM in each case. Also, the TGI in the test on HCT-116 colon is more than 100 µM.
`CC[N+](C)(CC)CC(C)(C)C(=O)/C=C/c1ccc(/C=C/C(=O)C(C)(C)C[N+](C)(CC)CC)cc1`: the TGI in the test with SF-268 CNS, with CAKI-1 renal, with HCC-2998 colon, in the test on RPMI-8226 leukemia, with UACC-257 melanoma and in the test on RXF 393 renal was more than 100 µM in each case. Moreover, the TGI in the test on SK-MEL-5 melanoma, in the test on OVCAR-3 ovarian and in the test on HCT-116 colon was more than 100 µM throughout.
`COc1cc(C2C3=C(COC3=O)N(CCO)c3cc4c(cc32)OCO4)cc(OC)c1O` (configuration not stated): the GI50 was 2.18 µM with SF-268 CNS; 5.4 µM in the test on CAKI-1 renal; 1.53 µM with HCC-2998 colon; 1.57 µM in the test on RPMI-8226 leukemia; 0.576 µM in the test with RXF 393 renal; 0.832 µM with SK-MEL-5 melanoma. Also, the GI50 is 0.982 µM in the test with OVCAR-3 ovarian and 1.88 µM in the test on HCT-116 colon. The TGI with SF-268 CNS is more than 50 µM; in the test on CAKI-1 renal, more than 41 µM; with HCC-2998 colon, 4.65 µM; in the test on RPMI-8226 leukemia, more than 50 µM; in the test on RXF 393 renal, 2.11 µM; in the test with SK-MEL-5 melanoma it was 3.42 µM. Moreover, the figures for the TGI in the test on OVCAR-3 ovarian and with HCT-116 colon were 2.22 µM and more than 26.3 µM, respectively.
As to `CC12CCC3c4cc(Br)c(O)c(Br)c4CCC3C1CCC2O` (configuration not stated), the TGI in the test on SF-268 CNS turned out to be 49.6 µM; in the test with CAKI-1 renal it was 31.5 µM; with HCC-2998 colon, 25.3 µM; in the test on SK-MEL-2 melanoma it was 59.4 µM; in the test on UACC-257 melanoma it was 35.8 µM; in the test with RXF 393 renal, 40.5 µM. Moreover, the TGI was 56.4 µM in the test on OVCAR-3 ovarian and more than 100 µM in the test with HCT-116 colon.
As for `C#CCN(C(=O)C(F)(F)F)c1ccc(C(=O)c2ccc(N(CC#C)C(=O)C(F)(F)F)cc2)cc1`, the TGI is more than 100 µM in the test on SF-268 CNS; more than 100 µM in the test with HCC-2998 colon; 51.2 µM in the test with RPMI-8226 leukemia; 87.9 µM with SK-MEL-2 melanoma; 86.6 µM in the test with UACC-257 melanoma; more than 100 µM with RXF 393 renal. The TGI in the test with SK-MEL-5 melanoma was more than 100 µM; in the test with OVCAR-3 ovarian, 88.6 µM; with HCT-116 colon it was more than 100 µM.
With `CC(=O)c1cc(C(=O)c2ccc3c(c2)Sc2ccccc2N3)c2c(C)cccn12`, the GI50 with SF-268 CNS is 0.915 µM; with HCC-2998 colon it was 1.65 µM; in the test with RPMI-8226 leukemia, 0.412 µM; in the test on SK-MEL-2 melanoma it was 0.3 µM; with UACC-257 melanoma, 2.39 µM; in the test with RXF 393 renal it was 0.252 µM. For the same molecule, the GI50 is 0.259 µM in the test on SK-MEL-5 melanoma, 0.261 µM in the test on OVCAR-3 ovarian and 0.27 µM in the test with HCT-116 colon. The TGI was more than 100 µM in the test with SF-268 CNS; more than 100 µM in the test on HCC-2998 colon; 83.4 µM with RPMI-8226 leukemia; more than 66.2 µM with SK-MEL-2 melanoma; more than 100 µM with UACC-257 melanoma; 2.37 µM in the test with RXF 393 renal. In addition, the TGI amounted to 4.56 µM with SK-MEL-5 melanoma, 0.838 µM in the test with OVCAR-3 ovarian and 10.5 µM with HCT-116 colon.
Regarding `NNC(=O)c1ccc(OCc2nc3ccccc3[nH]2)cc1`, the TGI with SF-268 CNS, in the test on CAKI-1 renal, in the test on RPMI-8226 leukemia, with SK-MEL-2 melanoma, with UACC-257 melanoma and in the test with RXF 393 renal was more than 100 µM each time. For the same molecule, the TGI with SK-MEL-5 melanoma, in the test with OVCAR-3 ovarian and with HCT-116 colon was more than 100 µM in each case.
With `COc1cc2c(=O)n(CCN(C)C)c3c4cc5c(cc4ccc3c2cc1OC)OCO5`, the GI50 is 0.222 µM with SF-268 CNS; 0.53 µM with HCC-2998 colon; 0.159 µM with RPMI-8226 leukemia; 0.876 µM in the test on SK-MEL-2 melanoma; 0.413 µM in the test on UACC-257 melanoma; 0.363 µM in the test with RXF 393 renal. Further, the GI50 in the test on SK-MEL-5 melanoma was 0.152 µM; with OVCAR-3 ovarian it was 0.583 µM; in the test with HCT-116 colon, 0.195 µM. For the same molecule, the TGI with HCC-2998 colon turned out to be 1.36 µM; in the test with RPMI-8226 leukemia, 0.8 µM; in the test with SK-MEL-2 melanoma it was 1.94 µM; with UACC-257 melanoma it was 1.52 µM; with RXF 393 renal it was 1.14 µM; with SK-MEL-5 melanoma it was 0.559 µM. For the same molecule, the TGI in the test with OVCAR-3 ovarian came out at 19 µM; in the test on HCT-116 colon it was 2.01 µM.
On to `CCN1C[C@]2(COC)[C@H](O)C[C@H](OC)[C@]34C1[C@H]([C@H](OC)[C@H]23)[C@]1(OC(C)=O)[C@H]2[C@@H](OC(=O)c3ccccc3)[C@](O)(C[C@H]24)[C@@H](OC)[C@@H]1O`, for which the TGI in the test on SF-268 CNS, with CAKI-1 renal, in the test on HCC-2998 colon, in the test on SK-MEL-2 melanoma, in the test on UACC-257 melanoma and with SK-MEL-5 melanoma was more than 100 µM each time. Moreover, the TGI in the test on HCT-116 colon is more than 100 µM.
For the molecule `CCOc1ccc(O)cc1[P+](c1ccccc1)(c1ccccc1)c1ccccc1`, the TGI in the test with SF-268 CNS is more than 100 µM; with CAKI-1 renal, 23.4 µM; in the test with HCC-2998 colon, 13.4 µM; in the test on RPMI-8226 leukemia, 26.5 µM; in the test with UACC-257 melanoma it was 5.9 µM; with RXF 393 renal it was 17.9 µM. In addition, the TGI in the test with SK-MEL-5 melanoma amounted to 4.7 µM; with OVCAR-3 ovarian it was 11.4 µM; in the test on HCT-116 colon, 13.7 µM.
On to `COC1C2c3cc4c(cc3CC(C#N)(c3ccccc32)N1C(=O)c1ccccc1)OCO4` (configuration not stated), for which the TGI in the test on SF-268 CNS, in the test with HCC-2998 colon, with RPMI-8226 leukemia, in the test on SK-MEL-2 melanoma, with UACC-257 melanoma and in the test with RXF 393 renal was more than 100 µM each time. Besides, the TGI with SK-MEL-5 melanoma, in the test on OVCAR-3 ovarian and with HCT-116 colon was more than 100 µM in each case.
On to `Cc1cc(=O)[nH]c(CNC(=O)c2cccc(C(=O)NCc3cc(=O)[nH]c(C)n3)c2)n1`, for which the TGI in the test with SF-268 CNS, in the test with HCC-2998 colon, in the test on RPMI-8226 leukemia, in the test on SK-MEL-2 melanoma, in the test with UACC-257 melanoma and in the test on RXF 393 renal was more than 100 µM each time. In addition, the TGI in the test on SK-MEL-5 melanoma, in the test with OVCAR-3 ovarian and in the test on HCT-116 colon was more than 100 µM throughout.
